Experimental data: patent publication US20160355544A1, “NOVEL CHOLESTEROL METABOLITE, 5-CHOLESTEN, 3BETA-25-DIOL, DISULFATE (25HCDS) FOR THERAPY OF METABOLIC DISORDERS, HYPERLIPIDEMIA, DIABETES, FATTY LIVERS DISEASES AND ATHEROSCLEROSIS” (priority 2012, published 2016)
Values joined by “and” are separate entries in the source; they are usually repeats but may differ in a detail not shown here. Equal entries are not always repeated.

Legend:
HFD-fed mice = assay: Quantification of hepatic lipids in mouse NAFLD model (HFD-fed mice); type: in vivo, C57BL/6J mice
Procedure: (§1) Animal studies were approved by Institutional Animal Care and Use Committee of McGuire Veterans Affairs Medical Center and were conducted in accordance with the Declaration of Helsinki, the Guide for the Care and Use of Laboratory Animals, and all applicable regulations. To examine the effect of 25HCDS on diet-induced lipid accumulation in sera and liver, 8-week-old female C57BL/6J mice (Charles River, Wilmington, Mass.) were fed high fat diet (HFD) (Harlan Teklad, Madison, Wis.) containing 42% kcal from fat, 43% kcal from carbohydrate, 15% kcal from protein and 0.2% cholesterol for 10 weeks. All mice were housed under identical conditions in an aseptic facility and given free access to water and food. At the end of each period, the mice were intraperitoneally injected with vehicle solution (ethanol/PBS; Vehicle), or 25HCDS (25 mg/kg) once every three days for 6 weeks and fasted for overnight; and blood samples were collected. Serum triglyceride, total cholesterol, high density lipoprotein-cholesterol, glucose, alkaline phosphatase (ALK), alanine aminotransferase (ALT), and aspartate aminotransferase (AST) were measured using standard enzymatic techniques in the clinical laboratory at McGuire Veterans Affairs Medical Center. Lipoprotein profiles in sera were analyzed by HPLC as described below.
Liver tissues were homogenized, and lipids were extracted with a mixture of chloroform and methanol (2:1), and filtered. The extracts, 0.2 ml, were evaporated to dryness and dissolved in 100 μl of isopropanol containing 10% of TRITON™ X-100 (C14H22O(C2H4O)n), a nonionic surfactant) for cholesterol assay (Wako Chemicals USA, Richmond, Va.), the NEFA solution (0.5 g of EDTA-Na2, 2 g of TRITON™ X-100, 0.76 ml of IN NaOH, and 0.5 g of sodium azide/l, pH 6.5) for free fatty acid assay (Wako Chemicals USA, Richmond, Va.), or isopropanol only for triglyceride assay (Fisher Scientific, Pittsburgh, Pa.). All of the assays were performed according to the manufacturer's instructions, respectively. Each lipid concentration was normalized to liver weight.

[1] = test system: Hepatic mRNA Expression involved in inflammatory responses in the Mice Fed a HFD; assay: Relative hepatic mRNA expression of inflammatory response genes in HFD-fed mice (real-time RT-PCR); type: in vivo, C57BL/6J mice
Procedure: (§2) Total RNA was isolated with SV Total RNA Isolation Kit (Promega, Madison, Wis.), which included DNase treatment. Total RNA, 2 μg, was used for the first-strand cDNA synthesis as recommended by the manufacturer (Invitrogen, Carlsbad, Calif.). Real-time RT-PCR was performed using a suitable dye as indicator on ABI 7500 Fast Real-Time PCR System (Applied Biosystems, Foster City, Calif.). All primer/probe sets for real-time PCR were TaqMan gene expression assays (Applied Biosystems, Foster City, Calif.). Amplifications of β-actin and glyceraldehyde 3-phosphate dehydrogenase (GAPDH) were used as internal controls. Relative messenger RNA (mRNA) expression was quantified with the comparative cycle threshold (Ct) method and was expressed as 2^−ΔΔct. The sequences of suitable primers for amplification are described, for example, in Ren et al., 2007 (1).
as §1

[2] = Body mass, caloric intake, liver weight and toxicity during long-term treatment of HFD-fed mice; type: in vivo, C57BL/6J mice
Procedure: as §1
To study the effects of long-term treatment of 25HCDS on lipid homeostasis, 8-week-old C57BL/6J female mice were fed a HFD for 10 weeks, and then divided into two groups. One group was treated with 25HCDS and the other with vehicle by peritoneal injection once every three days for six weeks. During the treatment, the mice were fed a HFD, and body mass and caloric intakes were monitored. […] After 6 weeks of injections, the mice were fasted overnight, and sacrificed.

[3] = test system: Hepatic mRNA Expression involved in lipid metabolism in the Mice Fed a HFD; assay: Relative hepatic mRNA expression of lipid metabolism genes in HFD-fed mice (real-time RT-PCR); type: in vivo, C57BL/6J mice; conditions: 25HCDS 25 mg/kg i.p. once every three days for 6 weeks, HFD vehicle = 1.0, mean ± SD, n = 7
Procedure: as §2, §1

THP-1 macrophages = assay: mRNA levels in THP-1 macrophages by real-time RT-PCR; type: cell-based, Human
Procedure: Human THP-1 monocytes and HepG2 cells were purchased from the American Type Culture Collection (ATCC, Manassas, Va.) and maintained according to the supplier's protocols. THP-1 monocytes were differentiated to macrophages by adding 100 nM of phorbol 12-myristate 13-acetate (PMA). When cells reached ˜90% confluence, 25HCDS in ethanol (the final concentration of ethanol in media was 0.1%) was added. The cells were harvested at the indicated times for protein, mRNA, and lipid analysis.
as §2

PPARγ = PPARγ mRNA regulation by 25HC3S (comparison in discussion); conditions: administration of 25HC3S, compared with 25HCDS
[4] = Liver function assays in sera of HFD-fed mice; type: in vivo, C57BL/6J mice; conditions: data not shown
Procedure: as §1

[5] = HFD-fed mice, 25 mg/kg i.p. once every three days for 6 weeks, versus HFD vehicle, 25 mg/kg
[6] = in vivo studies, 25HCDS administration
[7] = 25 mg/kg i.p. once every three days for 6 weeks, versus HFD vehicle
[8] = 25HCDS 25 mg/kg i.p. once every three days for 6 weeks, HFD vehicle = 1.0, mean ± SD, n = 7
[9] = HFD-fed mice during 6 weeks of treatment, versus vehicle, data not shown
[10] = concentration dependent and time dependent, FIG. 5A

Structure (SMILES): C[C@H](CCCC(C)(C)OS(=O)(=O)O)[C@H]1CC[C@H]2[C@@H]3CC=C4C[C@@H](OS(=O)(=O)O)CC[C@]4(C)[C@H]3CC[C@]12C [25HCDS, 5-cholesten-3β, 25-diol, disulfate]
- decrease of total cholesterol in liver tissue (HFD-fed mice; HFD-fed mice, 25 mg/kg i.p. once every three days for 6 weeks, versus HFD vehicle): 30%
- decrease of free fatty acids in liver tissue (HFD-fed mice; [5]): 20% and 25%
- decrease of triglycerides in liver tissue (HFD-fed mice; [5]): 18% and 20%
- decrease of hepatic neutral lipids (HFD-fed mice; [6]): 20-35%
- increase of PGC-1α expression in the liver [1, 7]: 2 fold
- suppression of IL1β expression in liver [1, 7]: 36%
- suppression of TNFα expression in liver [1, 7]: 50%
- IL1α relative hepatic mRNA expression [1, 8]: 1.02 ± 0.20
- IL1β relative hepatic mRNA expression [1, 8]: 0.64 ± 0.16
- IkBα relative hepatic mRNA expression [1, 8]: 1.35 ± 0.27
- PGC-1α relative hepatic mRNA expression [1, 8]: 2.11 ± 0.82
- PPARα (Peroxisome proliferator-activated receptor gamma) relative hepatic mRNA expression [1, 8]: 1.27 ± 0.52
- TNFv (Tumor necrosis factor a) relative hepatic mRNA expression [1, 8]: 0.50 ± 0.21
- body mass [2, 9]: No significant difference
- caloric intakes [2, 9]: No significant difference
- liver weights ([2]; after 6 weeks of injections, data not shown): did not show significant differences
- toxicity [2, 6]: without exhibiting toxicity
- ACC1 relative hepatic mRNA expression [3]: 0.86 ± 0.18
- CD36 relative hepatic mRNA expression [3]: 0.69 ± 0.29
- FAS relative hepatic mRNA expression [3]: 0.68 ± 0.17
- GPAM relative hepatic mRNA expression [3]: 0.74 ± 0.18
- HMGR relative hepatic mRNA expression [3]: 0.84 ± 0.07
- LDLR relative hepatic mRNA expression [3]: 0.62 ± 0.08
- MTTP relative hepatic mRNA expression [3]: 0.94 ± 0.17
- PLTP relative hepatic mRNA expression [3]: 0.68 ± 0.21
- SREBP-1c relative hepatic mRNA expression [3]: 0.64 ± 0.14
- SREBP-2 relative hepatic mRNA expression [3]: 1.12 ± 0.25
- PPARγ mRNA levels (THP-1 macrophages; FIG. 5C, 5D): linearly increased
- expression of SREBP1/2 (THP-1 macrophages; FIGS. 5A and 5B): decreases
- IκBα expression (THP-1 macrophages; at an early stage and at low concentrations): coincidently increased
- ACC mRNA levels (THP-1 macrophages; [10]): decreases
- FAS mRNA levels (THP-1 macrophages; [10]): decreases
- HMG-CoA reductase mRNA levels (THP-1 macrophages; concentration dependent and time dependent, FIG. 5B): decreases

Structure (SMILES): C[C@H](CCCC(C)(C)O)[C@H]1CC[C@H]2[C@@H]3CC=C4C[C@@H](OS(=O)(=O)O)CC[C@]4(C)[C@H]3CC[C@]12C [25HC3S, 5-Cholesten-3β, 25-diol 3-sulfate]
- PPARγ mRNA (PPARγ): only slightly increases
- alkaline phosphatase activity in sera [4]: decreasing
